# Measurements published in patent EP0719546B1, “LUV comprising saturated phospholipids and method of making the same” (THE LIPOSOME COMPANY, INC., priority 1987, dated 1988).
# Counter-ions that a name gives are not always drawn.
# Key:
# [1] = Drug uptake into EPC large unilamellar vesicles with proton gradient; format: physicochemical; settings: 300 mM citric acid pH 4.0 inside, pH 7.5 outside; for encapsulation by the vesicles: EPC LUVs (100 nm filters), 25°C
# Protocol: Egg phosphatidylcholine (15 mg) was dispersed in 2 ml of 300 mM citric acid, pH 4.0 and the resulting MLVs frozen in liquid nitrogen and thawed in warm water (approximately 35°C) a total of five times. The lipid was then extruded 10 times through two stacked 100 nm pore size polycarbonate filters using the LUVET procedure. A proton gradient was created by passage of the vesicles over a Sephadex G-50 (fine) column (1.5 cm x 10 cm) preequilibrated with 300 mM NaCl, 20 mM HEPES, pH 7.5. An aliquot of the large unilamellar vesicles eluted from the column was diluted in 300 mM NaCl, […], pH 7.5 to a lipid concentration of 0.75 mgml^-1 in a total volume of 2 ml and then daunorubicin (113 ug) added from a stock solution (5.64 mgml^-1) in distilled water. The mixture was incubated at room temperature (25°C) and at intervals of 2, 10, 20, 30, 60 and 120 minutes, 100 ul aliquots were centrifuged through 1 ml "minicolumns" of Sephadex G-50 (fine) to remove any unencapsulated daunorubicin from the vesicles. The concentration of entrapped daunorubicin was determined from its absorbance at 500 nm in a Shimadzu UV-265 spectrophotometer following solubilization of the vesicles in 1% Triton X-100. Lipid was quantified by liquid scintillation counting using tracer levels of ^3H-DPPC. In excess of 98% of the daunorubicin was encapsulated by the vesicles giving a drug to lipid molar ratio of 1:5.
# (§1) The materials and procedures of Example 30 were employed except that epirubicin (116 ug) was addded to the vesicle suspension (2 ml) from a stock solution (5.8 mgml^-1). Epirubicin uptake was quantified from its absorbance at 500 nm following solubilization of the vesicles in 1% Triton X-100. Epirubicin encapsulation by the vesicles was in excess of 98% giving a drug to lipid molar ratio of 1:5.
# as §1, with “mitoxanthrone (103” for “epirubicin (116”, “added” for “addded”, “(2” for “(5.8”, “Mitoxantrone” for “Epirubicin”, “670” for “500”, “2%” for “1%”
# The materials and procedures of Example 30 were employed except that cisplatin (200 uM) was combined with the liposome suspension.
# [2] = Vincristine trapping efficiency, pH gradient loading; format: physicochemical; settings: DSPC/cholesterol (55:45) liposomes, 300 mM citric acid pH 4.0, 200 nm filter, drug to lipid approximately 0.17:1, external pH about 7.0, 60°C for 10 minutes
# Protocol: These MLVs (100 mg total lipid/ml buffer) were extruded 10 times through a 200 nm pore size polycarbonate filter in a thermojacket LUVET heated to 60°C. Liposomes were added to a solution of 1 mg/ml vincristine sulfate (Oncovin, available from Eli Lilly and Co., Indianapolis, IN) to achieve a drug to total lipid weight ratio of approximately 0.17:1. To this was added a sufficient amount of 1.0 M Na2HPO4 to bring the pH of the solution to about 7.0. The samples were then heated at 60°C for 10 minutes at which time the drug was encapsulated inside the liposomes at a trapping efficiency in excess of 98%.
# The above was repeated using EPC/cholesterol and HSPC/cholesterol.
# ascites L1210 tumor line = assay: Antitumor activity of vincristine, L1210 lymphocytic leukemia model; format: in vivo, DBA/2J mice; settings: L1210 model in mice
# Protocol: The antitumor activity of free and liposomal vincristine was assessed employing an L1210 lymphocytic leukemia model. DBA/2J mice (6 mice per group) were injected i.p. with 1 X 10^6 L1210 cells derived from the ascites fluid of a previously infected mouse. Liposomal vincristine made according to Example 27 was administered i.v. at various times after tumor innoculation and animal weights as well as mortality rates were monitored.
# The above example was repeated by administering free vincristine and empty liposomes.
# [3] = In vitro release of doxorubicin from liposomes under dialysis; format: physicochemical; settings: vesicles containing 300 mM citrate (pH 4.0), drug to lipid (wt/wt) ratio 1:10 to 1:3, over 24 hours
# Protocol: The materials and-procedures of Example 6 were employed to determine the in vitro stability of the liposome-doxorubicin preparations. Release experiments were performed as follows: 10-fold dilute liposome samples were dialyzed for 24 hours against 1000 volumes of 20 mM HEPES, 150 mM NaCl (pH 7.5) at 37°C. At 1, 2, 4, 8, 10, and 24 hours post-preparation, a 150 ul aliquot was removed and the entrapped doxorubicin was determined.
# EPC/cholesterol (55/45 mole ratio) was dried from chloroform to a thin film on a 500 ml capacity round bottom flask (400 mg total lipid). The film was hydrated with 4.0 ml of 300 mM citric acid at pH 4.0, forming MLVs. These MLVs were extruded through 2 stacked 0.22 um Nucleopore membrafil filters followed by extrusion 10 times through a 0.1 um Nucleopore membrafil (tortuous path) filter. To 1.0 ml of the resulting filtrate sample was added 275 ul of 1M Na2CO3, which raised the exterior pH to 8.3. An aliquot (0.6 ml) was heated for 3 minutes at 60°C, as was a 10 mg sample of doxorubicin. The liposome aliquot was added to the 10 mg doxorubicin and heated at 60°C for 5 minutes. The sample was divided into 2 parts. […] At 1 hour, a 150 ul aliquot was removed and analyzed for doxorubicin and lipid phosphate as previously described, after passage down a 1.0 ml Sephadex column equilibrated in the respective buffer. […]
# [4] = Doxorubicin entrapment (trapping) efficiency, transmembrane pH gradient loading; format: physicochemical
# Protocol: In order to determine whether an ionizable antineoplastic agent will load into liposomes in response to a transmembrane pH gradient, EPC-containing liposomes are made (about 1.0 mM EPC) with a ^3H-DPPC tracer and with a relatively acidic or basic internal medium such as 300 mM citric acid at about pH 4.0. These liposomes are extruded about 10 times according to the LUVET procedure through 2 100 nm filters, followed by adjustment of the external pH to a relatively basic or acidic pH, for example, sodium carbonate, at about pH 11.0. Following the formation of the pH gradient, the agent to be loaded, spiked with a radioactive isotope of the agent, is admixed with the liposomes to about 200 uM (per 1.0 mM lipid used). The liposomes are separated from free, unentrapped agent on G50-M Sephadex minicolumns at 500 X g for 3 minutes into 13 X 100 mm tubes, and radioactivity counted in a scintillation counter. Uptake of the drug in nmoles per umole of lipid is then plotted over incubation time. One hundred percent of the available doxorubicin is taken up into liposomes under these conditions.
# In the case of doxorubicin, commercially available forms, such as powdered, solid, and methylparaben-containing forms (Adriamycin R.D.F., Adria Laboratories, Inc., Columbus, Ohio) may be used in the invention. When the methylparaben-containing form is employed, an aqueous solution such as saline may be added to that form, thereby dissolving it, followed by the admixing of this suspension with the liposomes which have the transmembrane pH gradient across their bilayers. Such admixing at 60°C for about 10 minutes results in more than about 98% encapsulation of the doxorubicin.
# To determine entrapment efficiency of the liposome preparations, free and liposome encapsulated doxorubicin was monitored spectrophotometrically employing a Shimadzu UV-160 spectrophotometer as follows: the liposomal-doxorubicin samples were diluted with 20 mM Hepes, 250 mM NaCl (pH 7.5) to achieve approximate doxorubicin concentrations between 0.05-0.10 mM. The following sequence of measurements was made; (1) the absorbance at 600 nm of the diluted sample was adjusted to zero; (2) the sample was alkalinized to pH 10.5 with 1.0 N NaOH (0.02 ml/1.0 ml of sample) and the absorbance at 600 nm was recorded within 2 minutes; (3) the spectrophotometer was zeroed against a 0.2% Triton X-100 solution, and (4) the absorbance at 600 nm of the liposomal-doxorubicin sample to which Triton X-100 had been added (0.02 ml 20% Triton X-100 wt./wt./1.0 ml of sample) was determined. Free:total doxorubicin ratios were calculated as the absorbance at 600 nm upon NaOH addition divided by the absorbance after Triton X-100 addition.
# To relate the pH-dependent spectral response technique to actual free and trapped drug levels, vesicle entrapped doxorubicin was determined as follows: A small aliquot of the liposomal-doxorubicin solution was passed down Sephadex G-50 gel columns equilibrated in 20 mM Hepes, 150 mM NaCl (pH 7.5) to separate free from liposome-associated drug. The liposome-containing eluant as well as aliquots of the original solutions were assayed for phospholipid and doxorubicin by phosphorus analysis and optical density at 480 nm, respectively as previously described in Mayer et al., (1986), Biochim Biophys. Acta., 857:123.
# The materials and procedures of Example 3 were employed, but entrapment efficiency of liposome encapsulated doxorubicin was monitored by comparison of the color resulting from addition of an aliquot (0.2 ml) of the liposomes to 1.0 N NaOH to a color chart.
# After completion of the entrapment procedure according to Example 6, 20 ul of the doxorubicin-liposomes were diluted to 200 ul with 20 mM HEPES, 150 mM NaCl (pH 7.5). An aliquot of this diluted sample (20 ul) was assayed for lipid phosphate by the procedure of Bartlett, J. Biol. Chem. 1959, 234:466-468. […]
# SC-115 cells = assay: SC-115 tumor growth in Shinogi mice; format: in vivo, Male Shinogi mice; settings: SC-115 tumor, 3.25, 6.5 and 13 mg/kg i.v., 3 injections at seven day intervals
# Protocol: Male Shinogi mice (25-40g, 9 per group) were injected subcutaneously with 1X10^5 SC-115 cells obtained from a primary tumor in previously inoculated mice. Tumor growth was monitored by palpation and tumor measurements with a vernier caliper. Upon growth of the tumor to 0.5-2.0 g (tumor weight = [width^2 x length]/2, measurements in mm), mice were administered liposomal doxorubicin dose of 13 mg/kg i.v. at seven day intervals (3 injections of the indicated dose). Tumor growth was monitored 3 times weekly for 50 days post first treatment or until the tumor weight exceeded 9 g at which time the animal was sacrificed. Treatment doses were based on the initial animal weights prior to tumor inoculation.
# The above procedure was repeated and the mice were administered saline or empty liposomes (administered at a dose equivalent to that given for a liposomal doxorubicin dose of 13 mg/kg).
# The above procedure was repeated at 3.25 mg/kg dose and 6.5 mg/kg dose for free and liposomal doxorubicin.
compound,measurement,setting,value
"O=C1c2c(O)ccc(O)c2C(=O)c2c(NCCNCCO)ccc(NCCNCCO)c21 [Mitoxantrone, mitoxanthrone]",encapsulation by the vesicles,[1],> 98%
"N.N.[Cl][Pt][Cl] [Cisplatin, cisplatin]",accumulation into liposomes by the transmembrane pH gradient,"[1]; EPC LUVs, 200 uM drug",not accumulated
"CC[C@]1(O)C[C@H]2CN(CCc3c([nH]c4ccccc34)[C@@](C(=O)OC)(c3cc4c(cc3OC)N(C=O)[C@H]3[C@@](O)(C(=O)OC)[C@H](OC(C)=O)[C@]5(CC)C=CCN6CC[C@]43[C@@H]65)C2)C1 [vincristine, vincristine sulfate]",trapping efficiency,[2],> 98%
same,efficacy against the ascites L1210 tumor line,ascites L1210 tumor line,no efficacy
COc1cccc2c1C(=O)c1c(O)c3c(c(O)c1C2=O)C[C@@](O)(C(C)=O)C[C@@H]3O[C@H]1C[C@H](N)[C@H](O)[C@H](C)O1 [daunorubicin],encapsulation by the vesicles,[1],> 98%
"COc1cccc2c1C(=O)c1c(O)c3c(c(O)c1C2=O)C[C@@](O)(C(=O)CO)C[C@@H]3O[C@H]1C[C@H](N)[C@@H](O)[C@H](C)O1 [Epirubicin, epirubicin]",encapsulation by the vesicles,[1],> 98%
COc1cccc2c1C(=O)c1c(O)c3c(c(O)c1C2=O)C[C@@](O)(C(=O)CO)C[C@@H]3O[C@H]1C[C@H](N)[C@H](O)[C@H](C)O1 [doxorubicin],drug released,[3],less than 5%
same,available doxorubicin taken up into liposomes,"[4]; EPC liposomes (about 1.0 mM), 300 mM citric acid pH 4.0 inside, 100 nm filters, external sodium carbonate, about 200 uM agent",One hundred
same,trapping efficiency,"[4]; Example 14: HSPC/cholesterol 2.4:1 weight ratio, 300 mM citric acid pH 4.0, 0.2 um filter, external pH 8.5, 15 minutes at 60°C, color test",greater than 95%
same,entrapment efficiency,"[4]; Example 21: DSPC liposomes, 300 mM citric acid pH 4.0, 0.2 um filters, external pH 7.8, drug to lipid ratio 0.25:1, 60°C for 5 minutes",greater than 95%
same,drug entrapped by the liposomes,"[4]; Example 26: EPC/cholesterol (55:45 mol ratio), methods of Example 2",Greater than 98%
same,encapsulation of the doxorubicin,"[4]; methylparaben-containing form (Adriamycin R.D.F.) dissolved in saline, admixed with pH gradient liposomes at 60°C for about 10 minutes",more than 98%
same,entrapment,"[4]; vesicles containing 300 mM citrate (pH 4.0), drug to lipid (wt/wt) ratio between 1:10 and 1:3",about 100%
same,trapping efficiencies,"[4]; vesicles, drug to lipid ratios (wt/wt) 0.1:1 to 0.3:1, neutral, negatively charged or saturated phospholipids, varying cholesterol",about 100%
same,tumor growth inhibition,SC-115 cells,dose dependent tumor growth inhibition
